According to US20220372024A1, “CRYSTALLINE FORMS OF ENTRECTINIB” (Johnson Matthey Public Limited Company, priority 2019, published 2022):
Read-outs that look alike come from different tables or passages of the source.

Legend:
Assay type in all cases: physicochemical
[1] = Gravimetric vapour sorption (GVS), XRPD after analysis; conditions: 25° C., 0-90% RH
Excerpt: Hygroscopicity of a solid material may be determined by means of gravimetric vapour sorption (GVS) analysis, sometimes known by dynamic vapour sorption (DVS) analysis. The experiment subjects a sample material which is held in a fine wire basket on a microbalance within a temperature and humidity controlled environment (chamber). Using the software, the collected data can then be processed to determine the isotherm points at the increment ranges specified during the experiment and show the overall water uptake of the material. Sorption isotherms were obtained using a SMS DVS Intrinsic moisture sorption analyser, controlled by DVS Intrinsic Control software. The sample temperature was maintained at 25° C. by the instrument controls. The humidity was controlled by mixing streams of dry and wet nitrogen, with a total flow rate of 200 ml/min. The relative humidity was measured by a calibrated Rotronic probe (dynamic range of 1.0-100% RH), located near the sample. The weight change, (mass relaxation) of the sample as a function of % RH was constantly monitored by a microbalance (accuracy ±0.005 mg). Typically, 5-30 mg of sample was placed in a tared mesh stainless steel basket under ambient conditions. The sample was loaded and unloaded at 40% RH and 25° C. (typical room conditions). A moisture sorption isotherm was performed as outlined below (2 scans per complete cycle). The standard isotherm was performed at 25° C. at 10% RH intervals over a 0-90% RH range. Typically, a double cycle (4 scans) was carried out. Data analysis was carried out within Microsoft Excel using the DVS Analysis Suite. [table]

[2] = Storage stability of the crystalline form (XRPD diffractogram and chemical purity); conditions: 28 days storage at 40° C./75% RH and 25° C./97% RH
Excerpt: Entrectinib anhydrate (Form A) was also characterised as follows: • TGA and DSC analysis (see FIG. 2). • GVS isotherm analysis (see FIG. 3). • XRPD analysis pre- (bottom) and post- (top) GVS (see FIG. […] 5). The XRPD overlays illustrate that entrectinib anhydrate (Form A) is stable under the storage conditions.
Entrectinib anhydrate (Form C) was also characterised as follows: • TGA and DSC analysis (see FIG. 9). • GVS isotherm analysis (see FIG. 10). • XRPD analysis before (bottom) and after (top) the GVS experiment (see FIG. […] 12). The XRPD overlays illustrate that entrectinib anhydrate (Form C) is stable under the storage conditions (see FIG. 12).
Entrectinib monohydrate (Form G) was also characterised as follows: • TGA and DSC analysis (see FIG. 20). • GVS isotherm analysis (see FIG. 21). • XRPD analysis pre- (bottom) and post- (top) GVS (see FIG. […] 23). The XRPD overlays illustrate that entrectinib monohydrate (Form G) is stable under the storage conditions.

[3] = Intrinsic dissolution rate (IDR), Sirius inForm; conditions: pH 2.8, 37° C., 3 mm disc
Excerpt: Data were collected on a Sirius inForm instrument fitted with a dual UV Dip Probe attachment and Ag/AgCl combination pH electrode. The electrode was calibrated using the four plus parameters derived from a blank titration. The base titrant was standardised by titration with TRIS. 0.5 M HCl and NaOH aqueous solutions were used as the acid and base titrants respectively for the testing. Stirring was facilitated by a dual overhead stirrer to allow thorough mixing within the vessel, and media was introduced via a capillary bundle attached to a dispensing bank comprised of six precision dispensing units. A Peltier heating jacket was used to maintain the temperature of the titration vessel. Discs were introduced to the vessel via the tablet picker housed in the probe arm, after the desired temperature of the media had been reached. Sirius inForm Assay Design, Control and Refine software were used to design, run and refine data respectively. The reference sample was prepared as a 10.1 mM stock solution in DMSO. MEC data was then collected using UV metric method with initial addition of 100 μl of DMSO stock. UV Spectra were then collected from low to high pH (pH 2-12) in two titrations using a 5 mm path length. The MEC data set was then imported into the dissolution data files in order to convert the UV absorbance measured to concentration. The concentration range for UV data collected was […]. MEC data were collected in the dissolution media (36 ml of ISA water+4 ml of GI Tract buffer) and at 37° C. to match the dissolution experiments. Ca. 8-20 mg of the sample was compressed in a 3 mm disc recess, under 100 kg for 2 minutes, with greaseproof paper on the compression base, to form non-disintegrating discs. The discs were then plugged with a bung so that only one surface was exposed to the media during analysis and transferred to the Sirius inForm dissolution apparatus. […] The IDR was calculated based on the surface area of the 3 mm disc recess used (7.07 mm^2 surface area). […]

[4] = Four hour solubility in buffered media (HPLC quantitation); conditions: for solubility at 4 h: 25 °C, thermodynamic from solid, read-out: Solubility after 4 hours; for Solubility after 4 hours: 25° C.
Experimental: Sufficient sample was suspended in 1.0 ml media for a maximum anticipated concentration of ca. 10 mg/ml of the free form of the compound. The resulting suspensions were then shaken at 25° C./750 rpm for 4 hours. The pH of the sample solutions was checked after 1 hour and adjusted as necessary with 0.2 M NaOH to ensure that the desired pH was maintained throughout (±0.2). After equilibration, the appearance was noted, and the final pH of the saturated solution was measured. Samples were then filtered through a glass C′ fibre filter (Particle retention size 1.2 μm). Samples suspended in pH 1.2 buffer were diluted 10 times with pH 1.2 buffer, all other samples were analysed undiluted. Quantitation was by HPLC with reference to a standard solution of approximately 0.15 mg/ml. Different volumes of the standard, diluted and undiluted sample solutions were injected. The solubility was calculated using the peak areas determined by integration of the peak found at the same retention time as the principal peak in the standard injection. [table] [table]

[5] = pH 1.2 hydrochloric acid buffer

| SMILES | Change in form after GVS (XRPD after analysis) [1] | Stability under the storage conditions (XRPD overlays) [2] | IDR [3] | solubility at 4 h ([4]; hydrochloric acid buffer, pH 1.2, simulated gastric fluid, pH 1.2 hydrochloric acid buffer) [µg/mL] | solubility at 4 h ([4]; pH 2.8 buffer, pH 2.8, aqueous buffer, pH 2.8 buffer) [µg/mL] | Solubility after 4 hours ([4]; pH 4.5 acetate buffer) | Solubility after 4 hours ([4]; pH 6.8 phosphate buffer) | Solubility after 4 hours ([4]; pH 7.5 phosphate buffer) | Solubility after 4 hours [4, 5] | Solubility after 4 hours ([4]; pH 2.8 buffer) |
| --- | --- | --- | --- | --- | --- | --- | --- | --- | --- | --- |
| CN1CCN(c2ccc(C(=O)Nc3n[nH]c4ccc(Cc5cc(F)cc(F)c5)cc34)c(NC3CCOCC3)c2)CC1 [Form A, N-[5-[(3,5-difluorophenyl)methyl]-1H-indazol-3-yl]-4-(4-methylpiperazin-1-yl)-2-(oxan-4-ylamino)benzamide] | unchanged | stable | pH 2.8: 2.5 mg/min/cm^2 | > 5000 | > 5000 | pH 4.5->5.0 mg/ml | pH 6.8-0.0024 mg/ml | pH 7.5-0.0013 mg/ml | – | – |
| CN1CCN(c2ccc(C(=O)Nc3n[nH]c4ccc(Cc5cc(F)cc(F)c5)cc34)c(NC3CCOCC3)c2)CC1 [Form C, N-[5-[(3,5-difluorophenyl)methyl]-1H-indazol-3-yl]-4-(4-methylpiperazin-1-yl)-2-(oxan-4-ylamino)benzamide] | unchanged | stable | pH 2.8: 2.5 mg/min/cm^2 | – | – | pH 4.5-4.0 mg/ml | pH 6.8-0.0013 mg/ml | pH 7.5-0.0006 mg/ml | pH 1.2-4.3 mg/ml | pH 2.8->5.0 mg/ml |
| CN1CCN(c2ccc(C(=O)Nc3n[nH]c4ccc(Cc5cc(F)cc(F)c5)cc34)c(NC3CCOCC3)c2)CC1 [Form G, N-[5-[(3,5-difluorophenyl)methyl]-1H-indazol-3-yl]-4-(4-methylpiperazin-1-yl)-2-(oxan-4-ylamino)benzamide] | substantially unchanged | stable | pH 2.8: 1.6 mg/min/cm^2 | – | – | pH 4.5-0.10 mg/ml | pH 6.8-0.0002 mg/ml | pH 7.5-0.0002 mg/ml | pH 1.2->5.0 mg/ml | pH 2.8->5.0 mg/ml |
